Test results from ChEMBL document CHEMBL1255486, “Effect of vicriviroc on the QT/corrected QT interval and central nervous system in healthy subjects” (Antimicrob Agents Chemother, 2010).

Experiments:
[1] = Cmax in healthy human at 200 mg/kg, po once daily for 7 days measured after 1 day of last dose; assay type: ADME, organism-based; parameters: dose 200 mg/kg, route oral; conditions: in vivo
[2] = AUC (0 to 24 hrs) in healthy human at 150 […], po once daily for 7 days measured after 1 day of last dose; assay type: ADME, organism-based; parameters: time < 24 hr, dose 150 mg/kg, route oral; conditions: plasma
[3] = Cmax in healthy human at 30 mg/kg, po after 10 days; assay type: ADME, organism-based; parameters: dose 30 mg/kg, route oral; conditions: in vivo
Homo sapiens [4] = test: Toxicity in healthy human assessed as nausea at 250 […], po administered as single dose; assay type: organism-based; parameters: route oral; conditions: in vivo
[5] = Cmax in healthy human at 250 mg/kg, po once daily for 7 days measured after 1 day of last dose; assay type: ADME, organism-based; parameters: dose 250 mg/kg, route oral; conditions: in vivo
[6] = Cmax in healthy human at 250 mg/kg, po once daily for 7 days; assay type: ADME, organism-based; parameters: dose 250 mg/kg, route oral; conditions: in vivo
Homo sapiens [7] = test: Toxicity in healthy human assessed as nausea at 150 […], po once daily for 7 days; assay type: organism-based; parameters: route oral; conditions: in vivo, 168 h
[8] = Tmax in healthy human at 150 […], po once daily for 7 days measured after 1 day of last dose; assay type: ADME, organism-based; parameters: dose 150 mg/kg, route oral; conditions: in vivo
Homo sapiens [9] = test: Toxicity in healthy human assessed as fatigue at 250 […], po once daily for 7 days; assay type: organism-based; parameters: route oral; conditions: in vivo, 168 h
Homo sapiens [10] = test: Toxicity in healthy human assessed as EEG abnormality at 200 mg/kg, po administered as single dose; assay type: organism-based; parameters: dose 200 mg/kg, route oral; conditions: in vivo
Homo sapiens [11] = test: Toxicity in healthy human assessed as puncture site pain at 250 […], po once daily for 7 days; assay type: organism-based; parameters: route oral; conditions: in vivo, 168 h
[12] = AUC (0 to 24 hrs) in healthy human at 250 mg/kg, po once daily for 7 days; assay type: ADME, organism-based; parameters: time < 24 hr, dose 250 mg/kg, route oral; conditions: plasma
[13] = Cmax in healthy human at 150 […], po after 10 days; assay type: ADME, organism-based; parameters: dose 150 mg/kg, route oral; conditions: in vivo
Homo sapiens [14] = test: Toxicity in healthy human assessed as EEG abnormality at 300 mg/kg, po administered as single dose; assay type: organism-based; parameters: dose 300 mg/kg, route oral; conditions: in vivo
Homo sapiens [15] = test: Toxicity in healthy human assessed as fatigue at 200 […], po administered as single dose; assay type: organism-based; parameters: route oral; conditions: in vivo
[16] = Tmax in healthy human at 30 mg/kg, po after 10 days; assay type: ADME, organism-based; parameters: dose 30 mg/kg, route oral; conditions: in vivo
[17] = Cmax in healthy human at 200 mg/kg, po administered as single dose after 1 day; assay type: ADME, organism-based; parameters: dose 200 mg/kg, route oral; conditions: in vivo
[18] = AUC (0 to 24 hrs) in healthy human at 200 mg/kg, po once daily for 7 days; assay type: ADME, organism-based; parameters: time < 24 hr, dose 200 mg/kg, route oral; conditions: plasma
[19] = Tmax in healthy human at 250 mg/kg, po once daily for 7 days; assay type: ADME, organism-based; parameters: dose 250 mg/kg, route oral; conditions: in vivo
[20] = Tmax in healthy human at 150 […], po after 10 days; assay type: ADME, organism-based; parameters: dose 150 mg/kg, route oral; conditions: in vivo
Homo sapiens [21] = test: Toxicity in healthy human assessed as pollakiuria at 150 […], po once daily for 7 days; assay type: organism-based; parameters: route oral; conditions: in vivo, 168 h
Homo sapiens [22] = test: Toxicity in healthy human assessed as pollakiuria at 300 […], po administered as single dose; assay type: organism-based; parameters: route oral; conditions: in vivo
Homo sapiens [23] = test: Toxicity in healthy human assessed as headache at 200 […], po once daily for 7 days; assay type: organism-based; parameters: route oral; conditions: in vivo, 168 h
Homo sapiens [24] = test: Toxicity in healthy human assessed as increase in blood […] at 300 […], po once daily for 7 days; assay type: organism-based; parameters: route oral; conditions: in vivo, 168 h
Homo sapiens [25] = test: Toxicity in healthy human assessed as fatigue at 300 […], po administered as single dose; assay type: organism-based; parameters: route oral; conditions: in vivo
Homo sapiens [26] = test: Toxicity in healthy human assessed as EEG abnormality at 250 mg/kg, po once daily for 7 days; assay type: organism-based; parameters: dose 250 mg/kg, route oral; conditions: in vivo, 168 h
[27] = AUC (0 to infinity) in healthy human at 300 mg/kg, po administered as single dose after 1 day; assay type: ADME, organism-based; parameters: time infinity, dose 300 mg/kg, route oral; conditions: plasma
[28] = Cmax in healthy human at 150 […], po once daily for 7 days; assay type: ADME, organism-based; parameters: dose 150 mg/kg, route oral; conditions: in vivo
Homo sapiens [29] = test: Cardiotoxicity in healthy human assessed as change in corrected QT interval at 150 […], po after 10 days by ECG; assay type: toxicity, organism-based; parameters: dose 150 mg/kg, route oral; conditions: in vivo, 240 h
[30] = Tmax in healthy human at 200 mg/kg, po once daily for 7 days measured after 1 day of last dose; assay type: ADME, organism-based; parameters: dose 200 mg/kg, route oral; conditions: in vivo
[31] = Tmax in healthy human at 150 […], po once daily for 7 days; assay type: ADME, organism-based; parameters: dose 150 mg/kg, route oral; conditions: in vivo
Homo sapiens [32] = test: Toxicity in healthy human assessed as pollakiuria at 200 […], po once daily for 7 days; assay type: organism-based; parameters: route oral; conditions: in vivo, 168 h
Homo sapiens [33] = test: Toxicity in healthy human assessed as EEG abnormality at 250 mg/kg, po administered as single dose; assay type: organism-based; parameters: dose 250 mg/kg, route oral; conditions: in vivo
Homo sapiens [34] = test: Toxicity in healthy human assessed as nausea at 200 […], po administered as single dose; assay type: organism-based; parameters: route oral; conditions: in vivo
[35] = AUC (0 to infinity) in healthy human at 200 mg/kg, po administered as single dose after 1 day; assay type: ADME, organism-based; parameters: time infinity, dose 200 mg/kg, route oral; conditions: plasma
Homo sapiens [36] = test: Toxicity in healthy human assessed as EEG abnormality at 200 mg/kg, po once daily for 7 days; assay type: organism-based; parameters: dose 200 mg/kg, route oral; conditions: in vivo, 168 h

Cmax [1]: 838 ng/mL | AUC at 24 h [2]: 3260 ng·h/mL | Cmax [3]: 403 ng/mL | Cmax [5]: 791 ng/mL | Cmax [6]: 1040 ng/mL | Tmax [8]: 1.75 h | AUC at 24 h [12]: 8750 ng·h/mL | Cmax [13]: 1900 ng/mL | Tmax [16]: 2 h | Cmax [17]: 731 ng/mL | AUC at 24 h [18]: 8140 ng·h/mL | Tmax [19]: 2 h | Tmax [20]: 1.5 h | AUC(0-inf) [27]: 10100 ng·h/mL | Cmax [28]: 649 ng/mL | Tmax [30]: 1.75 h | Tmax [31]: 1.5 h | AUC(0-inf) [35]: 6050 ng·h/mL
SMILES: COC[C@@H](c1ccc(C(F)(F)F)cc1)N1CCN(C2(C)CCN(C(=O)c3c(C)ncnc3C)CC2)C[C@@H]1C [VICRIVIROC]
Activity (Homo sapiens [4]): 0% | Activity (Homo sapiens [7]): 17% | Activity (Homo sapiens [9]): 0% | Activity (Homo sapiens [10]): 0% | Activity (Homo sapiens [11]): 17% | Activity (Homo sapiens [14]): 13% | Activity (Homo sapiens [15]): 0% | Activity (Homo sapiens [21]): 38% | Activity (Homo sapiens [22]): 0% | Activity (Homo sapiens [23]): 13% | Activity (Homo sapiens [24]): 10% | Activity (Homo sapiens [25]): 0% | Activity (Homo sapiens [26]): 38% | Activity (Homo sapiens [29]): Non-toxic | Activity (Homo sapiens [32]): 13% | Activity (Homo sapiens [33]): 0% | Activity (Homo sapiens [34]): 0% | Activity (Homo sapiens [36]): 0%
